Assays:
[1] = Octanol-water distribution coefficient, logD of the compound at pH 7.4 by RP-HPLC analysis; type: physicochemical
[2] = Metabolic stability in human hepatocyte assessed as intrinsic clearance measured per million cells HPLC/UV/MS analysis; type: ADME, cell-based; settings: hepatocytes, read-out: CLH
Melanocortin receptor 4 [3] = molecular target: T1, Melanocortin receptor 4 (Homo sapiens, UniProt P32245); experiment: Antagonist activity at human MC4R in CHO cells measured for 24 hrs; type: cell-based
[4] = Metabolic stability in human hepatocyte assessed as intrinsic clearance measured per 10^6 cells HPLC/UV/MS analysis; type: ADME, cell-based; settings: hepatocytes, read-out: CLH
Cytochrome P450 3A = Cytochrome P450 3A (Homo sapiens, UniProt P08684+P20815+Q9HB55+P24462); experiment: Time dependent inhibition of CYP3A (unknown origin) at 10 uM relative to control; type: ADME, protein assay
Melanocortin receptor 4 [5] = molecular target: T1, Melanocortin receptor 4; experiment: Antagonist activity at human MC4R in CHO cells measured for 24 hrs in presence of alpha-MSH; type: cell-based
[6] = Efflux ratio of apparent permeability from basolateral to apical side over apical to basolateral side in MDCK-MDR1 cells; type: ADME, cell-based, Canis lupus familiaris; settings: dog
[7] = molecular target: Voltage-gated inwardly rectifying potassium channel KCNH2 (Homo sapiens, UniProt Q12809); experiment: Inhibition of hERG expressed in CHO cells stably at -80 mV holding potential by automated patch clamp method; type: toxicity, cell-based
[8] = Lipophilicity, logD of compound at pH 7.4 by shake flask method; type: physicochemical; settings: buffer
Melanocortin receptor 4 [9] = molecular target: T1, Melanocortin receptor 4; experiment: Antagonist activity at human MC4R expressed in CHO cells assessed as decrease in alpha-MSH induced cAMP level incubated for 1 hr by microplate reader analysis; type: functional, cell-based

Sequence of Voltage-gated inwardly rectifying potassium channel KCNH2 (Q12809 whole entry): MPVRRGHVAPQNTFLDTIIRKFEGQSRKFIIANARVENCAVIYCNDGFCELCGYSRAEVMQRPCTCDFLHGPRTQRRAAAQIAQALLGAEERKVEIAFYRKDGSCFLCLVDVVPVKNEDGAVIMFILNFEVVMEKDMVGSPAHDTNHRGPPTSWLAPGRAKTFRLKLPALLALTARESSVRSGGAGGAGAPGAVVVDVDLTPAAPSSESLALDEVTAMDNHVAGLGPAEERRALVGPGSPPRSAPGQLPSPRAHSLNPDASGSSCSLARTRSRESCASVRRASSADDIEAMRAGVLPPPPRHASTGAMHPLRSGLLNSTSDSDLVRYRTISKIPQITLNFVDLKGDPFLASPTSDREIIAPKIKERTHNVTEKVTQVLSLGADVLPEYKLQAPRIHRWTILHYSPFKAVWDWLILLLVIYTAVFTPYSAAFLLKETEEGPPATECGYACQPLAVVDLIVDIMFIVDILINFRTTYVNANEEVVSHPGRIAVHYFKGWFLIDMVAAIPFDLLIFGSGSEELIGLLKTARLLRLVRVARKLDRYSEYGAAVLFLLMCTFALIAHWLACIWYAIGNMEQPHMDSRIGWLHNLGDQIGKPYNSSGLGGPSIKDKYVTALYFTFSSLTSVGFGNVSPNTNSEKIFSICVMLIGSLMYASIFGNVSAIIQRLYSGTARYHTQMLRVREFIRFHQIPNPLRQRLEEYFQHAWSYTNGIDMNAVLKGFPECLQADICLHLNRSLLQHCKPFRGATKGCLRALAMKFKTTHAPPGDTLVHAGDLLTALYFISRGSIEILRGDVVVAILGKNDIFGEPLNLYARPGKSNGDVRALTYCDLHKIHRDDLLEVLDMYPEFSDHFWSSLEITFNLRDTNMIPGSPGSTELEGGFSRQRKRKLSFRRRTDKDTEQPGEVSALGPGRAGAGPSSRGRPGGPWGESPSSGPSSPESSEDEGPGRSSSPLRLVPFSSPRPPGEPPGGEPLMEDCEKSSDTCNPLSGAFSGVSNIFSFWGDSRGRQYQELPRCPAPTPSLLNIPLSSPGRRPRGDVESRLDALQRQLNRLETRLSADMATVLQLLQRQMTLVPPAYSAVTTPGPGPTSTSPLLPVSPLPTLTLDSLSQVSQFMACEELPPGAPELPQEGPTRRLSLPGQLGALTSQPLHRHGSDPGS
T1 sequence (P32245 whole entry): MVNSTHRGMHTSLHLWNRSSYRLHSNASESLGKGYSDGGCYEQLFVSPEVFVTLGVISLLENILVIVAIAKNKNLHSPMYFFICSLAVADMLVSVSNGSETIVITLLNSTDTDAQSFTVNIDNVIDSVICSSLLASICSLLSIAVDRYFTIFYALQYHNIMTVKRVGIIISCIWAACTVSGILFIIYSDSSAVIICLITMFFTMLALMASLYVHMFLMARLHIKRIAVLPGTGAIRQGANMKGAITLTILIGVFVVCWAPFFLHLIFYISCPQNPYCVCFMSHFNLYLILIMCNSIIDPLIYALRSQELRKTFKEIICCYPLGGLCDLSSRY

logD [1]	hepatocyte CLint [2] [µL/min/1e6 cells]	IC50 (Melanocortin receptor 4 [3]) [nM]	hepatocyte CLint [4] [µL/min/1e6 cells]	K (Cytochrome P450 3A) [min⁻¹]	Ki (Melanocortin receptor 4 [5]) [nM]	Ratio [6]	logD [8]	IC50 (Melanocortin receptor 4 [9]) [nM]	SMILES	IC50 [7] [µM]
–	–	240	4.5	0.007	19	19	–	–	Cc1nc(N[C@H]2CCN(C(=O)Cc3ccc(F)cc3)C2)ccc1-c1ncn(C)n1	–
–	11	–	–	–	0.49	8.7	3.2	–	COc1cc([C@@H](C)C(=O)N2CC[C@@]3(CCc4cc(-c5nc(C(F)F)n(C)n5)c(C)nc4N3)C2)c(F)cn1	–
–	12	8.4	–	–	0.45	4.8	–	–	COc1cc([C@@H](C)C(=O)N2CC[C@@]3(CCc4cc(-c5nc(C(F)(F)F)n(C)n5)c(C)nc4N3)C2)c(F)cn1	–
1.9	–	20000	–	–	> 2200	34	–	–	Cc1nc2c(cc1-c1cnn(C)c1)CC1(CCN(C(=O)Cc3ccc(F)cc3)C1)N2 (racemic)	–
2.4	4.9	–	–	–	–	–	–	–	Cc1nc2c(cc1-c1cnn(C)c1)OC[C@@]1(CCN(C(=O)Cc3ccc(F)cc3)C1)N2	–
–	6.5	39	–	–	0.6	18	2.6	–	Cc1nc2c(cc1-c1cnn(C)c1)CC[C@@]1(CCN(C(=O)Cc3ccc(F)cc3)C1)N2	–

Continued, compound first:

SMILES	logD [1]	hepatocyte CLint [2] [µL/min/1e6 cells]	IC50 (Melanocortin receptor 4 [3]) [nM]	hepatocyte CLint [4] [µL/min/1e6 cells]	K (Cytochrome P450 3A) [min⁻¹]	Ki (Melanocortin receptor 4 [5]) [nM]	Ratio [6]	logD [8]	IC50 (Melanocortin receptor 4 [9]) [nM]	IC50 [7] [µM]
COc1cc(CC(=O)N2CC[C@H](Nc3ccc(-c4nc(C(F)(F)F)n(C)n4)c(C)n3)C2)cc(OC)c1	3.6	34	–	–	–	–	–	–	–	–
Cc1nc(N[C@H]2CCN(C(=O)Cc3ccc(F)cc3)C2)ccc1-c1nc(C(F)(F)F)n(C)n1	–	–	210	20	0.006	5.5	6.1	–	–	78
COc1cc(CC(=O)N2CC[C@H](Nc3ccc(-c4nc(C(F)F)n(C)n4)c(C)n3)C2)ccn1	–	7.1	–	–	–	27	–	–	–	–
COc1cc([C@@H](C)C(=O)N2CC[C@H](Nc3ccc(-c4nc(C(F)F)n(C)n4)c(C)n3)C2)c(F)cn1	3.4	15	–	15	0.015	–	–	–	–	25
[2H]C([2H])([2H])n1nc(-c2ccc(N[C@H]3CCN(C(=O)[C@H](C)c4cc(OC)ncc4F)C3)nc2C)nc1C(F)F	–	–	–	18	–	–	–	–	–	28
COc1ccc2nc(N(C(=O)Cc3cc(F)cc(F)c3)[C@H]3CCNC3)ccc2c1	–	–	3.8	–	–	–	–	–	–	–
COc1cc([C@@H](C)C(=O)N2CC[C@H](Nc3ccc(-c4n[nH]c(C(F)F)n4)c(C)n3)C2)c(F)cn1	–	–	–	7.5	–	62	–	–	–	19
COc1cc([C@@H](C)C(=O)N2CC[C@H](Nc3ccc(-c4nc(C(F)(F)F)n(C)n4)c(C)n3)C2)c(F)cn1	4.2	15	–	–	–	–	6.1	–	–	–
COc1ccc2nc(N[C@H]3CCN(C(=O)Cc4cc(F)cc(F)c4)C3)ccc2c1	–	–	7.8	28	0.61	0.62	8.6	–	360	0.36
COc1cc([C@@H](C)C(=O)N2CC[C@H](Nc3ccc(-c4nc(C(F)F)n(C)n4)c(C)n3)C2)ccn1	–	10	–	–	–	1.4	16	2.7	–	–
COc1ccc2nc(N[C@H]3CCN(C(=O)Cc4cc(F)cc(F)c4)C3)c(C)cc2c1	–	–	–	–	–	910	–	–	–	–
COc1cc([C@@H](C)C(=O)N2CC[C@H](Nc3ccc(-c4ncccn4)c(C)n3)C2)c(F)cn1	–	7.9	–	–	–	6.4	4.9	2.6	–	–

— ChEMBL document CHEMBL5316345, “Discovery of the Potent and Selective MC4R Antagonist PF-07258669 for the Potential Treatment of Appetite Loss” (J Med Chem, 2023)
